Test results published in ChEMBL document CHEMBL3797111, “Substituted Indazoles as Nav1.7 Blockers for the Treatment of Pain” (J Med Chem, 2016).

Key:
Type in all cases: ADME, organism-based
Details in all cases: in vivo
[1] = Bioavailability in Sprague-Dawley rat by HPLC-MS/MS analysis
Plasma [2] = test: Plasma concentration in monoiodoacetate-induced osteoarthritis rat model at 3 mg/kg, po
Plasma [3] = test: Plasma concentration in monoiodoacetate-induced osteoarthritis rat model at 10 mg/kg, po
Plasma [4] = test: Plasma concentration in monoiodoacetate-induced osteoarthritis rat model at 30 mg/kg, po

Row | Structure (SMILES) | bioavailability [1] [%] | Cp (Plasma [2]) [ng/mL] | Cp (Plasma [3]) [ng/mL] | Cp (Plasma [4]) [ng/mL]
1 | O=C1NCCN1CCOc1nn(-c2ccc(F)cc2)c2ccc(F)cc12 | 54 |  |  | 
2 | O=c1[nH]ccn1CCOc1nn(-c2ccccc2F)c2ccc(F)cc12 | 35 |  |  | 
3 | O=C1CN(c2cccc3c2cnn3-c2ccccc2F)CCN1CC(=O)N1CC[C@H](F)C1 | 84 |  |  | 
4 | O=C(CN1CCN(c2cccc3c2cnn3-c2ccccc2F)C1=O)N1CC[C@H](F)C1 | 83 | 2700 | 6800 | 10500
5 | CC(C)CC(=O)CN1CCN(c2cccc3c2cnn3-c2ccccc2F)C1=O | 82 |  |  | 
6 | O=C(COc1nn(-c2ccccc2F)c2ccc(F)cc12)N1CCOCC1 | 22 |  |  | 
7 | O=C(CN1CCN(c2cccc3c2cnn3-c2ccccc2F)C1=O)N1CCCC1 | 94 |  |  | 
8 | Fc1ccc2c(c1)c(OCCn1ccnc1)nn2-c1ccccc1F | 28 |  |  | 
9 | O=C1NCCN1CCOc1nn(-c2ccc(F)cc2F)c2ccc(F)cc12 | 71 |  |  | 
10 | CC(Oc1nn(-c2ccccc2F)c2ccc(F)cc12)C(=O)N1CCOCC1 (configuration not stated) | 27 |  |  | 
11 | O=C1NCCN1CCOc1nn(-c2ccccc2F)c2ccc(F)cc12 | 17 | 50 | 380 | 1050
